{
  "source": "patent US20260294946A1",
  "about": "“METHOD TO REDUCE FEED CONVERSION RATIO IN A FARMED ANIMAL” (Inbiose N.V., priority 2023, published 2026)",
  "format_in_all_cases": "in vivo",
  "key": {"Bacteroides coprophilus": {"tested_on": "Bacteroides coprophilus", "assay": "Fecal microbiota of calves, shotgun metagenomics", "conditions": "T2 (W 9), versus placebo calves, score = −log 10(pvalue)*sign(coef)", "description": "(§1) Stools were collected directly from recta of six calves in one selected pen upon rectal inducing at day 29 (W5) and day 57 (W9). The fecal samples (approximately 1 g) were immediately snap frozen using isopropanol-dried ice bath for 1 minute before they were transferred onto dried ice for transportation to a long-term storage at −80° C.\n(§2) Total fecal DNA was extracted from 200 mg feces while total upper respiratory tract microbial DNA were extracted from 1 ml DNA shield reagent containing the nasal pharyngeal swab. ZymoBIOMICS™ DNA miniprep kit (Zymo Research) in combination with a FASTPREP® 24 device was used to extract and purify the microbial DNA as instructed by the manufacturer. Purified total DNA were eluted in 100 μl and were quickly checked for the concentration and quality using Nanodrop (Implen NANOPHOTOMETER®) before storage at −20° C.\n(§3) Total DNA were submitted to Eurofins (GATC, Germany) to perform metagenomics using their INVIEW metagenome platform. Briefly, total DNA were first fragmented, then ligated with adapter for library preparation. The sequencing was done using Illumina paired end sequencing technology (2×150 bp), guaranteed for 20 million read pairs (40 million reads). Reads were quality-checked with fastqc (bioinformatics.babraham.ac. uk/projects/fastqc/) and trimmed with Trimmomatic (Bolger et al., 2014, Bioinformatics, 30(15): p. 2114-2120; usadellab.org/cms/?page=trimmomatic). Bovine reads were removed by mapping to the cow reference database Bos_taurus_UMD_3.1.1 using BMTagger (bioconda.github.io/recipes/bmtagger/README.html). Profiling of the taxonomic composition and the functional potential of microbial communities was done using Metaphlan (Beghini et al., 2021, Elife 10: e65088; /huttenhower.sph.harvard.edu/humann/).\n(§4) Microbiome data was normalized in cpm (counts per million).\n(§5) The treatment effect of MMOs in the microbiome data was evaluated per timepoint with Maaslin2 (Mallick et al., 2021, PLoS Computational Biology 17(11): e1009442) using AST transformation and adding compartment as fixed effect. For visualization in the tables a score was calculated equal to −log 10(pvalue)*sign(coef). Spearman correlation was used to evaluate the relation between microbiome and FCR using the cor.test function in the stats package in R."}, "Eubacterium rectale": {"tested_on": "Eubacterium rectale", "assay": "Fecal microbiota of calves, shotgun metagenomics", "conditions": "T1 (W 5), versus placebo calves, score = −log 10(pvalue)*sign(coef)", "description": "as §1, §2, §3, §4, §5"}, "Atopobium deltae": {"tested_on": "Atopobium deltae", "assay": "Fecal microbiota of calves, shotgun metagenomics", "conditions": "T1 (W 5), versus placebo calves, score = −log 10(pvalue)*sign(coef)", "description": "as §1, §2, §3, §4, §5"}, "[1]": {"tested_on": "Bacteroides pectinophilus", "assay": "Fecal microbiota of calves, shotgun metagenomics", "conditions": "T2 (W 9), versus placebo calves, score = −log 10(pvalue)*sign(coef)", "description": "as §1, §2, §3, §4, §5"}, "Ruminococcus bromii": {"tested_on": "Ruminococcus bromii", "assay": "Fecal microbiota of calves, shotgun metagenomics", "conditions": "T2 (W 9), versus placebo calves, score = −log 10(pvalue)*sign(coef)", "description": "as §1, §2, §3, §4, §5"}, "Prevotella copri": {"tested_on": "Prevotella copri", "assay": "Fecal microbiota of calves, shotgun metagenomics", "conditions": "T1 (W 5), versus placebo calves, score = −log 10(pvalue)*sign(coef)", "description": "as §1, §2, §3, §4, §5"}, "[2]": {"assay": "Trial in piglets: body weight, growth, feed intake and feed conversion (pre-weaning, 22 days)", "description": "The in vivo experiment was carried out at the commercial pig farm “Degroote Luc” (Bissegem, Belgium).\nThe experimental design had two treatments: • “Ti” serves as control, i.e., a placebo (water) was drenched during the first 4 days of life, and subsequently a commercial milk replacer as a liquid and creep feed was offered until weaning, • “T2,” a […] solution of 2′FL (it is referred to Example 1) in water was drenched during the first 4 days of life, and subsequently a commercial milk replacer supplemented with 2′FL (warm water was added to 250 g of milk powder to reach 25.000 (w/v)) and creep feed supplemented with 2′FL (10% w/w 2′FL) was offered until weaning. The composition of milk replacer and creep feed are detailed in Table 4.\nWithin 6 hours after birth of all piglets within a litter, piglets were tagged, weighed and ranked according to live weight. This was d0 of the study. Then, the first drenching was given, i.e., the heaviest piglet in the pen receives Ti, the next piglet T2 and so forth, until 12 piglets of that litter were drenched. In the next litter, the order of treatment application was alternated. This practice was done in 16 litters, and drenching was repeated on d1, d2 and d3. At the d4, […] were allocated to 16 pens with 6 piglets each, in the nursery unit. Ti was applied in 8 pens, and T2 was offered in 8 remaining pens. Piglets were allocated to pens according to litter of origin (from each of the 16 litters; 6 vital, normal to heavy weight piglets, body weight ≥1.7 kg, were taken and half of the piglets were allocated to a pen from T1—those receiving T1 in the first 3 days of life, and others to a pen from T2—those receiving T2 in the first 3 days of life), and to body weight and sex. Piglets were offered the liquid milk replacer through a cup connected to a mixing-tubing system and had free access to milk at all times. Milk intake was accurately measured at pen level. From d14 on, in addition, piglets were offered a creep feed (solid feed in feeder pan). Piglets were weighed at d0, d4, d14 and d22 (day of weaning).\nData was collected with respect to piglet performance (body weight, average daily gain (ADG), average daily feed intake and milk replacer for periods d0-4, d4-14, d14-22, d4-22, d0-22, total creep feed intake for period d14-22 and feed conversion for all periods.\nData were analyzed using appropriate linear mixed model with treatment as fixed effect (T1 vs. T2) and litter as random effect, and body weight at d0 as co-variate if P<0.05. Piglet was used as experimental unit for growth data, whereas pen was the experimental unit for other records."}},
  "data": [
    {"substance": "2′-fucosyllactose [2′FL]", "values": [
      {"measurement": "Significant change in counts per million (cpm) of bacteria species (score)", "setting": "Bacteroides coprophilus", "value": "−1.56"},
      {"measurement": "Significant change in counts per million (cpm) of bacteria species (score)", "setting": "Eubacterium rectale", "value": 1.35},
      {"measurement": "Significant change in counts per million (cpm) of bacteria species (score)", "setting": "Atopobium deltae", "value": "−1.44"},
      {"measurement": "Significant change in counts per million (cpm) of bacteria species (score)", "setting": "[1]", "value": 1.35},
      {"measurement": "Significant change in counts per million (cpm) of bacteria species (score)", "setting": "Ruminococcus bromii", "value": 1.65},
      {"measurement": "Significant change in counts per million (cpm) of bacteria species (score)", "setting": "Prevotella copri", "value": "−1.68"},
      {"measurement": "body weight, ADG, milk intake, and creep feed intake versus placebo", "setting": "[2]; 22 days of pre-weaning phase", "value": "no significant differences"},
      {"measurement": "FCR versus placebo", "setting": "[2]; 22 days of pre-weaning phase, trend", "value": "there is a trend that the FCR is reduced"},
      {"measurement": "Body weight", "setting": "[2]; d 0, P=0.839 vs placebo", "value": 1536, "unit": "g"},
      {"measurement": "ADG (average daily gain)", "setting": "[2]; d 0-4, P=0.363 vs placebo", "value": 139, "unit": "g/day"},
      {"measurement": "ADG (average daily gain)", "setting": "[2]; d 0-22, P=0.297 vs placebo", "value": 185, "unit": "g/day"},
      {"measurement": "Body weight", "setting": "[2]; d 4, P=0.369 vs placebo", "value": 2087, "unit": "g"},
      {"measurement": "ADFI milk (average daily feed intake)", "setting": "[2]; d 4-14, P=0.555 vs placebo", "value": 149, "unit": "g DM/d"},
      {"measurement": "FCR (milk)", "setting": "[2]; d 4-14, P=0.835 vs placebo", "value": 1.03, "unit": "g milk DM/g"},
      {"measurement": "ADG (average daily gain)", "setting": "[2]; d 4-14, P=0.950 vs placebo", "value": 150, "unit": "g/day"},
      {"measurement": "ADG (average daily gain)", "setting": "[2]; d 4-22, P=0.253 vs placebo", "value": 196, "unit": "g/day"},
      {"measurement": "FCR (milk)", "setting": "[2]; d 4-22, P=0.268 vs placebo", "value": 1.04, "unit": "g milk DM/g"},
      {"measurement": "ADFI milk (average daily feed intake)", "setting": "[2]; d 4-22, P=0.834 vs placebo", "value": 202, "unit": "g DM/d"},
      {"measurement": "Body weight", "setting": "[2]; d 14, P=0.946 vs placebo", "value": 3524, "unit": "g"},
      {"measurement": "FCR (milk + creep feed)", "setting": "[2]; d 14-22, P=0.038 vs placebo", "value": "1.18 (g milk DM + g creep feed DM)/"},
      {"measurement": "FCR (milk)", "setting": "[2]; d 14-22, P=0.055 vs placebo", "value": 1.09, "unit": "g milk DM/g"},
      {"measurement": "ADG (average daily gain)", "setting": "[2]; d 14-22, P=0.134 vs placebo", "value": 250, "unit": "g/day"},
      {"measurement": "ADFI creep feed (average daily feed intake)", "setting": "[2]; d 14-22, P=0.304 vs placebo", "value": 23.8, "unit": "g DM/d"},
      {"measurement": "ADFI milk (average daily feed intake)", "setting": "[2]; d 14-22, P=0.885 vs placebo", "value": 270, "unit": "g DM/d"},
      {"measurement": "Body weight", "setting": "[2]; d 22, P=0.306 vs placebo", "value": 5524, "unit": "g"},
      {"measurement": "FCR versus placebo", "setting": "[2]; day 14 to 22, milk and creep feed (P=0.038)", "value": "even lower"},
      {"measurement": "FCR versus placebo", "setting": "[2]; day 14 to 22, milk intake (P=0.055)", "value": "lower"}
    ]}
  ]
}
